The results in this text go back to patent US20140004243A1, “SALTY TASTE ENHANCER” (AJINOMOTO CO., INC., priority 2011, published 2014).

SMILES strings stand for the structures.

For the assay, the target named is T1, Human ENaC δ, β and γ subunit (Homo sapiens, UniProt P51168+P51170+P51172).
T1 construct: expressed in transfected cells; host or cells: Xenopus laevis (African clawed frog) oocytes injected with cRNA
T1 sequence (P51172 1-802): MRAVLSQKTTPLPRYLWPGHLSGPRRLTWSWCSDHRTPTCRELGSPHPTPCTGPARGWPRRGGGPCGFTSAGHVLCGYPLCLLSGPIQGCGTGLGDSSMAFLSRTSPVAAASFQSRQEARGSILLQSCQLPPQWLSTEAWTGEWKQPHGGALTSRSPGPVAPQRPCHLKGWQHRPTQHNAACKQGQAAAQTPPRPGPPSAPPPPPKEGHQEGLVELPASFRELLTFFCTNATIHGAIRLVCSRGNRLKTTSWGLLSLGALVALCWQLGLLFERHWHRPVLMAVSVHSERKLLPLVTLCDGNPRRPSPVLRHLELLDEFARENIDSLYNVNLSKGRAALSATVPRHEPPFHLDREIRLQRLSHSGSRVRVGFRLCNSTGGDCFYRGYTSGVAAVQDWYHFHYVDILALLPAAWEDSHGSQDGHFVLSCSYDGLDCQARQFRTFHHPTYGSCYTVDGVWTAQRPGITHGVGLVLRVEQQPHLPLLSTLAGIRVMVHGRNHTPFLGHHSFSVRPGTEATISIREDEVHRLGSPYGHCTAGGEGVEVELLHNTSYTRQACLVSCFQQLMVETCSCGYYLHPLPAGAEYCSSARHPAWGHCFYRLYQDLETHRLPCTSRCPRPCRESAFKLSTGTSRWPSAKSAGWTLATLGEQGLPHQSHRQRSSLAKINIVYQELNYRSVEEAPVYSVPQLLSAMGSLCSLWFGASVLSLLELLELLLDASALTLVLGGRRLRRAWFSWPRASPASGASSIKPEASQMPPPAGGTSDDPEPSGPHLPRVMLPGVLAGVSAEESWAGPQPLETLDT
T1 sequence (P51168 1-640): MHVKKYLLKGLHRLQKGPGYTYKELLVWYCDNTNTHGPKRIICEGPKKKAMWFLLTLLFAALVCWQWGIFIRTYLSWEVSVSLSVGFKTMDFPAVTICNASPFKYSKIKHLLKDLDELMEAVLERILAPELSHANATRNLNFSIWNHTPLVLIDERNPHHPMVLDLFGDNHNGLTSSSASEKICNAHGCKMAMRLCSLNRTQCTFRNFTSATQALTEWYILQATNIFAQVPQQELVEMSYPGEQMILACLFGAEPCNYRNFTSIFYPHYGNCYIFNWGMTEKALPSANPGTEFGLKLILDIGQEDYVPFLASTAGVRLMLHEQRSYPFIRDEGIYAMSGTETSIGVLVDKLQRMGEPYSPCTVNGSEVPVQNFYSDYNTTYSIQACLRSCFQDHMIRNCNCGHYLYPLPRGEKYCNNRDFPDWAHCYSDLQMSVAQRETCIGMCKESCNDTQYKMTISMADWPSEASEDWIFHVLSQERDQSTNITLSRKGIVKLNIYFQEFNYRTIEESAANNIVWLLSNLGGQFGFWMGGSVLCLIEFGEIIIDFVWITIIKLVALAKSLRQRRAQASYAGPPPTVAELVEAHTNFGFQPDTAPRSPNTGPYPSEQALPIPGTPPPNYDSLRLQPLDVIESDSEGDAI
T1 sequence (P51170 1-649): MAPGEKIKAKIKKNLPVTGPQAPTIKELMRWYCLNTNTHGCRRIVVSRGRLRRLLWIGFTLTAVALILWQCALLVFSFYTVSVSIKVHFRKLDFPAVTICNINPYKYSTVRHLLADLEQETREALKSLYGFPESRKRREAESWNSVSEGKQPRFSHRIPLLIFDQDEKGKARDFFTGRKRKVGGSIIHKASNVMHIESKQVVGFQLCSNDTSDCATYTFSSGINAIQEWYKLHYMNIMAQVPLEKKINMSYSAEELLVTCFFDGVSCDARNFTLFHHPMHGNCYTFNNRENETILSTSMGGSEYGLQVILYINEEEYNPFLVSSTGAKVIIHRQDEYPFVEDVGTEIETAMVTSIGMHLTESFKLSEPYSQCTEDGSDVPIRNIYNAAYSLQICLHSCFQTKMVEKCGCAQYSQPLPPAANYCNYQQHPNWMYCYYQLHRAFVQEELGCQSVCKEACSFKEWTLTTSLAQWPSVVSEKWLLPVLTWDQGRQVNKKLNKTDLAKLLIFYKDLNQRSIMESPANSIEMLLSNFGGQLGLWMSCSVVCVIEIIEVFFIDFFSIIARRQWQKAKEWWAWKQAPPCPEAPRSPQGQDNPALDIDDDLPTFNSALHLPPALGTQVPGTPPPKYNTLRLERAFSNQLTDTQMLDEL
Nature of the assay: Measurement of ENaC activation potency (MED) in ENaC-expressing oocyte, Two Electrode Voltage Clamp. Type of assay: cell-based. As to conditions: minimum effective dose at which current started to increase; ENaC-expressing African clawed frog oocyte; smaller MED = higher ENaC activation potency. Summed up: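 Xenopus oocytes injected with human ENaC δ, β and γ cRNA, cultured 16–72 hr, voltage-clamped 30 mV below resting potential in ND96 (pH 7.6) by two-electrode voltage clamp. Compounds (0.1 nM–300 μM) perfused at rising concentrations every 3 min. MED = lowest dose raising current ≥10%, or raising 5 μM capsazepine-evoked current ≥25%, whichever smaller.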
(In general: Two-electrode voltage clamp holds a large cell at a set potential and records current.)
`C[C@@H](NC(=S)NCCc1ccccc1)c1ccccc1` [Example 11]: the MED was 0.3 µM. `OC[C@@H](NC(=S)NCCc1ccccc1)c1ccccc1` [Example 51] displayed an MED of 0.3 µM. On to `Oc1cc2c(cc1O)CN(C(=S)NCCc1ccc(Cl)cc1)CCC2` [capsazepine], for which the MED was found to be 3 µM.
